Experimental data reported in patent US5760072A, “Paclitaxel prodrugs, method for preparation as well as their use in selective chemotherapy” (Pharmachemie B.V., priority 1995, dated 1998).
Structures can show the parent of a compound that is named as a salt.

How the values were obtained:
Solubility in water = type: physicochemical; settings: for solubility in water compared with parent drug paclitaxel: in words; for solubility: water, read-out: Concentrations reached in water
Experimental: Concentrations of 10 mM in water and higher were reached whereas the solubility of paclitaxel is lower as […] in water (K. C. Nicolaou et al., Nature, 1993, 364, 464-466).

[1] = Stability assay in PBS buffer pH 6.8, 37° C., HPLC; type: physicochemical; settings: for ratio of prodrug/paclitaxel: PBS pH=6.8, 37° C., HPLC peak areas; for stability in PBS buffer: in words, PBS pH=6.8
Experimental: The prodrugs in examples 1 and 2b were all stable in PBS buffer (PBS buffer=NaCl (8 g/L), KCl (0.2 g/L), Na2 HPO4 (1.15 g/L), KH2 PO4 (0.2 g/L), pH=6.8, see example 4 and 5).
To 3.0 mL PBS buffer, pH=6.8, was added 0.37 mg of prodrug 2b (0.30 μmol). The mixture was placed in a water bath of 37° C. […] The ratios are based on peak areas.
In 1.1 mL PBS buffer, pH=6.8, was dissolved 0.13 mg of prodrug 2a (0.11 μmol) and placed in a water bath of 37° C. […] The ratios are based on peak areas.

OVCAR-3 cells [2] = experiment: In vitro cytotoxicity (anti-proliferative effect) without β-glucuronidase, sulforhodamine B protein dye stain; type: cell-based; settings: for ratio IC50 prodrug/IC50 paclitaxel: OVCAR-3, without β-glucuronidase; for cytotoxicity compared with parent drug paclitaxel: in words
Experimental: (§1) The anti-proliferative effects of paclitaxel, and the prodrugs 1, 2a and 2b on OVCAR-3 cells were determined by measuring the cell growth with a protein dye stain (H. J. Haisma et al. Cell Biophysics 1994, 24/25, 185-192). Cells were seeded in 96-well tissue culture plates (5000 cells/well) and 24 h later (pro)drugs 1, 2a, 2b or 3 were added with or without excess human β-glucuronidase. After 72 hours the cells were fixed with 25% trichloroacetic acid, stained with 0.4% sulforhodamine B, washed with 1% acetic acid and air-dried. The bound dye was then solubilized with 10 mM Tris and the absorbance read at 492 nm. The antiproliferative effects were expressed as IC50 values, which are the (pro)drug concentrations that gave 50% growth inhibition when compared to control cell growth.

OVCAR-3 cells [3] = experiment: In vitro cytotoxicity (anti-proliferative effect) with excess human β-glucuronidase, sulforhodamine B protein dye stain; type: cell-based; settings: OVCAR-3, with β-glucuronidase
Experimental: as §1

human β-glucuronidase = biological target: T1, human β-glucuronidase (Homo sapiens, UniProt P08236); experiment: Enzyme catalyzed hydrolysis of prodrug by human β-glucuronidase, HPLC; type: biochemical; settings: for ratio prodrug/paclitaxel: 37° C., pH=6.8, HPLC peak areas; for intermediates (spacer attached to paclitaxel, compounds 5 and 7b) during enzyme catalyzed hydrolysis / enzymatic hydrolysis rate / paclitaxel found in experiment without human β-glucuronidase: in words; for enzymatic hydrolysis rate: appropriate enzyme; for paclitaxel found in experiment without human β-glucuronidase: no enzyme, PBS pH=6.8, 37° C., up to 180 min; for half life of hydrolysis by β-glucuronidase: prodrug 100 μM, enzyme 10 μg mL^-1
T1 construct: lysosomal homotetramer
T1 sequence (P08236 23-651): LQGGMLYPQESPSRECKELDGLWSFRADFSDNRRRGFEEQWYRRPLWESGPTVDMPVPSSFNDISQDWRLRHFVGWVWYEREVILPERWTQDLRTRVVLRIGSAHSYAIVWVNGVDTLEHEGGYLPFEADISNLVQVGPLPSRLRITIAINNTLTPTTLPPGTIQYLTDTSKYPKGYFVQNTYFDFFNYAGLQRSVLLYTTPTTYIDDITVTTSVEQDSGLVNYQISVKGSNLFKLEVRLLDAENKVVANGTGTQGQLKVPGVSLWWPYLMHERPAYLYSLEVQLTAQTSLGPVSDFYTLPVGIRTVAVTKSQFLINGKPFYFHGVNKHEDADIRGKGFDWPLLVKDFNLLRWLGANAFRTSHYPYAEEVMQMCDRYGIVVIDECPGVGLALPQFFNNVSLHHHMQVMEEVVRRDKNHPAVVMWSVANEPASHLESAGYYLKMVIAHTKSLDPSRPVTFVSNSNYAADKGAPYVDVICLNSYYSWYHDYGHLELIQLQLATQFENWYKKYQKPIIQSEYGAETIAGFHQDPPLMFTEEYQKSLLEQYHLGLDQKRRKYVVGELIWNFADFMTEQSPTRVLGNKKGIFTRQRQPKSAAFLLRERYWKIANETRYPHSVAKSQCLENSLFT
Experimental: To 140 μL PBS buffer (pH=6.8) was added 20 μL of a 1 mM solution of prodrug 1 in PBS buffer (pH=6.8) and 20 μL of 1% bovine serum albumin also in PBS buffer (pH=6.8). After incubation of the mixture for 10 min. at 37° C. 20 μL of a solution of 0.1 mg mL^-1 human β-glucuronidase (H. J. Haisma, Hybridoma, in press) was added. Directly after the addition of the enzyme to the reaction mixture an aliquot of 10 μL was taken and diluted with 90 μL cold acetonitrile (-20° C.) in order to stop the enzyme reaction. The reaction mixture was incubated for 3 hr at 37° C. and samples were taken at 15, 30, 45, 60, 90, 120 and 180 min. All samples were quenched by dilution with cold acetonitrile (-20° C.). […] In the later experiment also samples of 10 μL were taken at 0, 15, 30, 45, 60, 90, 120 and 180 min and were also diluted with cold acetonitrile (-20° C.). The samples of both experiments were analyzed by HPLC (C^18 reverse phase column, eluent: gradient of 10% acetonitrile in water to 90% acetonitrile in water, detection at 226 nm). The ratio of prodrug 1 to paclitaxel as shown in table 1 is determined by measuring the peak areas of the appropriate signals. […] All experiments were carried out in duplo.
20 μL of 1 mM solution of prodrug 2b in PBS buffer (pH=6.8) and 20 μL 1% bovine serum albumin also in PBS buffer (pH=6.8) was added to 140 μL PBS buffer (pH=6.8). Subsequently, the mixture was incubated for 10 min. at 37° C. whereafter 20 μL of a solution of 0.1 mg mL^-1 human β-glucuronidase (H. J. Haisma, Hybridoma, in press) was added and the reaction mixture was incubated at 37° C. Samples were taken and quenched at 0, 15, 30, 45, 60, 90, 120 and 180 min as described above for the enzyme assay of prodrug 1. In order to determine that the hydrolysis was caused by β-glucuronidase, another experiment was carried out without addition of β-glucuronidase as described above in example 7. The samples were analyzed as described for example 7 (vide supra). The ratios presented in table 2, are based on peak areas of the appropriate signals. […] All experiment were carried out in duplo.

[4] = K. C. Nicolaou et al., Nature, 1993, 364, 464-466; cited from earlier work

CC(=O)O[C@H]1C(=O)[C@@]2(C)[C@H]([C@H](OC(=O)c3ccccc3)[C@]3(O)C[C@H](OC(=O)[C@H](OC(=O)CC(C)(C)CNC(=O)O[C@@H]4O[C@H](C(=O)O)[C@@H](O)[C@H](O)[C@H]4O)[C@@H](NC(=O)c4ccccc4)c4ccccc4)C(C)=C1C3(C)C)[C@]1(OC(C)=O)CO[C@@H]1C[C@@H]2O [Prodrug 1, N-[paclitaxel-2'-O-3,3-dimethyl butanoate]-O-[β-glucuronyl] carbamate sodium salt]
solubility in water compared with parent drug paclitaxel (Solubility in water): far more better soluble in water as the parent drug paclitaxel | solubility (Solubility in water): ≥ 10 mM | ratio of prodrug/paclitaxel ([1]; 48 hr): 92/8 | stability in PBS buffer [1]: stable | ratio IC50 prodrug/IC50 paclitaxel (OVCAR-3 cells [2]): 90 | cytotoxicity compared with parent drug paclitaxel (OVCAR-3 cells [2]): less cytotoxic as the parent drug | ratio IC50 activated prodrug with β-glucronidase/IC50 paclitaxel (OVCAR-3 cells [3]): 3 | ratio prodrug/paclitaxel (human β-glucuronidase; 0 min): 99/1 | ratio prodrug/paclitaxel (human β-glucuronidase; 15 min): 95/5 | ratio prodrug/paclitaxel (human β-glucuronidase; 30 min): 93/7 | ratio prodrug/paclitaxel (human β-glucuronidase; 45 min): 87/13 | ratio prodrug/paclitaxel (human β-glucuronidase; 60 min): 78/22 | ratio prodrug/paclitaxel (human β-glucuronidase; 90 min): 61/39 | ratio prodrug/paclitaxel (human β-glucuronidase; 120 min): 43/57 | ratio prodrug/paclitaxel (human β-glucuronidase; 180 min): 33/67 | intermediates (spacer attached to paclitaxel, compounds 5 and 7b) during enzyme catalyzed hydrolysis (human β-glucuronidase): no intermediates | enzymatic hydrolysis rate (human β-glucuronidase): quite fast hydrolyzing rates | paclitaxel found in experiment without human β-glucuronidase (human β-glucuronidase): no paclitaxel was found | half life of hydrolysis by β-glucuronidase (human β-glucuronidase): about 2 hr

CC(=O)O[C@H]1C(=O)[C@@]2(C)[C@H]([C@H](OC(=O)c3ccccc3)[C@]3(O)C[C@H](OC(=O)[C@H](OC(=O)Cc4ccccc4NC(=O)O[C@@H]4O[C@H](C(=O)O)[C@@H](O)[C@H](O)[C@H]4O)[C@@H](NC(=O)c4ccccc4)c4ccccc4)C(C)=C1C3(C)C)[C@]1(OC(C)=O)CO[C@@H]1C[C@@H]2O [Prodrug 2a, N-[paclitaxel-2'-O-(2-amino) phenylacetate]-O-[β-glucuronyl] carbamate sodium salt]
solubility in water compared with parent drug paclitaxel (Solubility in water): far more better soluble in water as the parent drug paclitaxel | solubility (Solubility in water): ≥ 10 mM | ratio of prodrug/paclitaxel ([1]; 3 hr): 55/45 | ratio of prodrug/paclitaxel ([1]; 22 hr): 1/99 | stability in PBS buffer [1]: not stable | half-life ([1]; pbs buffer, pH 6.8, read-out: half time of decomposition to paclitaxel (converted)): 3 h | ratio IC50 prodrug/IC50 paclitaxel (OVCAR-3 cells [2]): 1 | cytotoxicity compared with parent drug paclitaxel (OVCAR-3 cells [2]): about as cytotoxic as paclitaxel | ratio IC50 activated prodrug with β-glucronidase/IC50 paclitaxel (OVCAR-3 cells [3]): 1

CC(=O)O[C@H]1C(=O)[C@@]2(C)[C@H]([C@H](OC(=O)c3ccccc3)[C@]3(O)C[C@H](OC(=O)[C@H](OC(=O)CCc4ccccc4NC(=O)O[C@@H]4O[C@H](C(=O)O)[C@@H](O)[C@H](O)[C@H]4O)[C@@H](NC(=O)c4ccccc4)c4ccccc4)C(C)=C1C3(C)C)[C@]1(OC(C)=O)CO[C@@H]1C[C@@H]2O [Prodrug 2b, N-[paclitaxel-2'-O-(2-amino)phenylpropionate]-O-[β-glucuronyl] carbamate sodium salt]
solubility in water compared with parent drug paclitaxel (Solubility in water): far more better soluble in water as the parent drug paclitaxel | solubility (Solubility in water): ≥ 10 mM | ratio of prodrug/paclitaxel ([1]; 48 hr): 92/8 | ratio of prodrug/paclitaxel ([1]; 66 hr): 89/11 | stability in PBS buffer [1]: stable | ratio IC50 prodrug/IC50 paclitaxel (OVCAR-3 cells [2]): 122 | cytotoxicity compared with parent drug paclitaxel (OVCAR-3 cells [2]): less cytotoxic as the parent drug | ratio IC50 activated prodrug with β-glucronidase/IC50 paclitaxel (OVCAR-3 cells [3]): 5 | ratio prodrug/paclitaxel (human β-glucuronidase; 0 min): 99/1 | ratio prodrug/paclitaxel (human β-glucuronidase; 15 min): 87/13 | ratio prodrug/paclitaxel (human β-glucuronidase; 30 min): 74/26 | ratio prodrug/paclitaxel (human β-glucuronidase; 45 min): 55/45 | ratio prodrug/paclitaxel (human β-glucuronidase; 60 min): 41/59 | ratio prodrug/paclitaxel (human β-glucuronidase; 90 min): 24/76 | ratio prodrug/paclitaxel (human β-glucuronidase; 120 min): 20/80 | ratio prodrug/paclitaxel (human β-glucuronidase; 180 min): 15/85 | intermediates (spacer attached to paclitaxel, compounds 5 and 7b) during enzyme catalyzed hydrolysis (human β-glucuronidase): no intermediates | enzymatic hydrolysis rate (human β-glucuronidase): quite fast hydrolyzing rates | paclitaxel found in experiment without human β-glucuronidase (human β-glucuronidase): no paclitaxel was found | half life of hydrolysis by β-glucuronidase (human β-glucuronidase): about 45 min

CC(=O)O[C@H]1C(=O)[C@@]2(C)[C@H]([C@H](OC(=O)c3ccccc3)[C@]3(O)C[C@H](OC(=O)[C@H](O)[C@@H](NC(=O)c4ccccc4)c4ccccc4)C(C)=C1C3(C)C)[C@]1(OC(C)=O)CO[C@@H]1C[C@@H]2O [paclitaxel]
solubility in water [4]: < 5 nM
